Among the data in PubChem BioAssay (NCI) are TGI values, retold here.

Test systems include A549 NSCLC; ACHN renal; CAKI-1 renal; CCRF-CEM leukemia; HCC-2998 colon; HL-60(TB) leukemia; K-562 leukemia; LOX IMVI melanoma; MALME-3M melanoma; NCI-H460 lung; OVCAR-8 ovarian; SK-MEL-2 melanoma; SNB-19 CNS; SW-620 colon; UACC-257 melanoma; NCI-H522 lung.
Common to all, as to assay: NCI tumour cell line growth inhibition, 48 h

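All cell lines were grown in 96-well plates and treated with compound for 48 hours. TGI marks complete inhibition of growth.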

`Cc1nc2ccc(N)cc2[nH]c1=O`: the TGI with A549 NSCLC, in the test on ACHN renal, with CAKI-1 renal, with CCRF-CEM leukemia, in the test on HCC-2998 colon and in the test on HL-60(TB) leukemia was greater than 100 µM each time. The TGI in the test with K-562 leukemia, in the test on LOX IMVI melanoma, with MALME-3M melanoma, in the test on NCI-H460 lung, with OVCAR-8 ovarian and in the test with SK-MEL-2 melanoma was greater than 100 µM throughout. For the same compound, the TGI with SNB-19 CNS, in the test on SW-620 colon and in the test with UACC-257 melanoma was greater than 100 µM throughout.
Regarding `C=C(C)CC(C)(c1cc2ccccc2n1C)N1CCOCC1` (stereo not drawn), the TGI in the test on A549 NSCLC, in the test on ACHN renal, in the test with CAKI-1 renal, in the test with CCRF-CEM leukemia, in the test on HCC-2998 colon and in the test on HL-60(TB) leukemia was greater than 100 µM each time. The TGI with LOX IMVI melanoma is greater than 100 µM; in the test on MALME-3M melanoma, greater than 100 µM; in the test on NCI-H460 lung, greater than 100 µM; in the test on NCI-H522 lung, 60.9 µM; in the test on OVCAR-8 ovarian, greater than 100 µM; in the test with SK-MEL-2 melanoma, greater than 100 µM. In addition, the TGI in the test with SNB-19 CNS, in the test on SW-620 colon and with UACC-257 melanoma was greater than 100 µM each time.
With `Nc1nc2ncn(CC(O)COC(=O)c3ccccc3)c2c(=O)[nH]1` (stereo not drawn), the TGI in the test with A549 NSCLC, in the test on ACHN renal, with CAKI-1 renal, in the test on CCRF-CEM leukemia, in the test with HL-60(TB) leukemia and in the test with K-562 leukemia was greater than 100 µM throughout. Besides, the TGI in the test with LOX IMVI melanoma, in the test on MALME-3M melanoma, with NCI-H460 lung, in the test with NCI-H522 lung, in the test with OVCAR-8 ovarian and in the test with SK-MEL-2 melanoma was greater than 100 µM in each case. Besides, the TGI in the test with SW-620 colon and in the test on UACC-257 melanoma was greater than 100 µM each time.
On to `N#CC1CCCCC1NC1(C#N)CCCCC1` (stereo not drawn), for which the TGI in the test on A549 NSCLC, with CAKI-1 renal, in the test with CCRF-CEM leukemia, in the test with HCC-2998 colon, in the test on HL-60(TB) leukemia and in the test with K-562 leukemia was greater than 100 µM in each case. The TGI in the test with LOX IMVI melanoma, with MALME-3M melanoma, in the test with NCI-H522 lung, in the test with OVCAR-8 ovarian, with SK-MEL-2 melanoma and with SNB-19 CNS was greater than 100 µM throughout. Further, the TGI in the test on SW-620 colon and with UACC-257 melanoma was greater than 100 µM throughout.
Take `CC(=O)NC(CCCNC(=O)OCc1ccccc1)C(=O)O` (stereo not drawn): the TGI with A549 NSCLC, in the test with ACHN renal, in the test on CAKI-1 renal, with CCRF-CEM leukemia, in the test with HCC-2998 colon and in the test on K-562 leukemia was greater than 100 µM throughout. Also, the TGI with LOX IMVI melanoma, with MALME-3M melanoma, in the test with NCI-H460 lung, with NCI-H522 lung, with OVCAR-8 ovarian and with SK-MEL-2 melanoma was greater than 100 µM throughout. The TGI in the test on SNB-19 CNS, in the test on SW-620 colon and in the test with UACC-257 melanoma was greater than 100 µM in each case.
For the compound `CCSc1nnc(-c2ccccc2)nc1Cc1ccc(OC)cc1`, the TGI in the test on A549 NSCLC, in the test on ACHN renal, with CCRF-CEM leukemia, with HCC-2998 colon, with HL-60(TB) leukemia and in the test on K-562 leukemia was greater than 100 µM in each case. The TGI in the test on LOX IMVI melanoma, in the test on MALME-3M melanoma, in the test on NCI-H460 lung, in the test on NCI-H522 lung, in the test on OVCAR-8 ovarian and in the test with SK-MEL-2 melanoma was greater than 100 µM in each case. Also, the TGI in the test on SNB-19 CNS, with SW-620 colon and in the test with UACC-257 melanoma was greater than 100 µM throughout.
With `CSc1nc2nc(C(O)C(O)C(O)CO)cnc2c(=O)[nH]1` (stereo not drawn), the TGI in the test on A549 NSCLC, in the test with ACHN renal, in the test with CAKI-1 renal, in the test on CCRF-CEM leukemia, with HCC-2998 colon and in the test on HL-60(TB) leukemia was greater than 100 µM throughout. The TGI in the test with LOX IMVI melanoma, with MALME-3M melanoma, in the test with NCI-H460 lung, with NCI-H522 lung, with OVCAR-8 ovarian and with SK-MEL-2 melanoma was greater than 100 µM in each case. Further, the TGI in the test on SNB-19 CNS, with SW-620 colon and in the test on UACC-257 melanoma was greater than 100 µM in each case.
For the compound `COC(=O)/C(=N/NC(C)(C)C)C(C(=O)OC)C(=O)C(=O)Nc1nc2ccc([N+](=O)[O-])cc2s1` (stereo not drawn), the TGI with A549 NSCLC, with ACHN renal, in the test on CAKI-1 renal, in the test on CCRF-CEM leukemia, with HCC-2998 colon and in the test with HL-60(TB) leukemia was greater than 100 µM in each case. The TGI in the test on K-562 leukemia, with LOX IMVI melanoma, in the test on MALME-3M melanoma, in the test on NCI-H460 lung, in the test on NCI-H522 lung and in the test on OVCAR-8 ovarian was greater than 100 µM in each case. For the same compound, the TGI with SK-MEL-2 melanoma, with SNB-19 CNS, in the test with SW-620 colon and in the test on UACC-257 melanoma was greater than 100 µM each time.
As to `COc1c(C)c(O)c2c(c1C)OC(c1ccccc1)CC2=O` (stereo not drawn), the TGI in the test with A549 NSCLC is greater than 100 µM; with ACHN renal, greater than 100 µM; with CAKI-1 renal, greater than 100 µM; in the test with CCRF-CEM leukemia, greater than 100 µM; in the test with HCC-2998 colon, greater than 100 µM; in the test on HL-60(TB) leukemia, 90.5 µM. For the same compound, the TGI in the test on K-562 leukemia was greater than 100 µM; in the test with LOX IMVI melanoma, greater than 100 µM; in the test with MALME-3M melanoma, 83.1 µM; with NCI-H460 lung it was greater than 100 µM; in the test on NCI-H522 lung, greater than 100 µM; with OVCAR-8 ovarian it was greater than 100 µM. For the same compound, the figures for the TGI with SK-MEL-2 melanoma and in the test with SW-620 colon were 74.1 µM and greater than 100 µM, respectively.
